According to article PMC7024557, “Synthesis of Novel Structural Hybrids between Aza-Heterocycles and Azelaic Acid Moiety with a Specific Activity on Osteosarcoma Cells” (Molecules, 2020):

Legend:
[1] = tested on: human osteosarcoma growth; parameters: method as in PMID 24344034, PMID 30697272; settings: ref [32],[33]; read-out: IC50, inhibition of human osteosarcoma growth; cited from earlier work
[2] = tested on: IGROV1 (human ovarian carcinoma); experiment: MTT assay, cell viability; format: cell-based; settings: IGROV-1, after 48 h of treatment, n.a. = non active
From the text: (§1) Cell lines included in the evaluation of toxicity profiles were malignant U2OS, HT29, PC3, and IGROV1, and a normal human adult fibroblast cell line HDFa.
(§2) The human prostate cancer (PC3), human colon cancer (HT29), human bone osteosarcoma (U2OS), and normal human adult fibroblast (HDFa) cell lines were purchased from American Type Culture Collection (ATCC, Manassas, VA, USA), while the human ovarian cancer cell line (IGROV1) was kindly provided by Istituto Nazionale Tumori (IRCCS, Milano, Italy). Cells were cultured in Roswell Park Memorial Institute (RPMI)-1640 medium (Labtek Eurobio, Milan, Italy), supplemented with 10% fetal calf serum (FCS; Euroclone, Milano, Italy) and 2mM L-glutamine (Sigma-Aldrich, Milano, Italy), at 37 °C and 5% CO2 atmosphere. The compounds were dissolved in dimethyl sulfoxide (DMSO) in a 60 mM stock solution. In cell treatments, the final DMSO concentration never exceeded 0.1%.
(§3) U2OS were seeded at 1.5 × 10^4 cells/well in a 96-well culture plastic plate (Orange Scientific, Braine-l’Alleud, Belgium) and, after 24 h of growth, cells were exposed for additional 48 h to increasing concentrations of compounds (0.1 µM and […]) solubilized in RPMI-1640 medium. On the day of measurement, the culture medium was replaced with 0.1 mL of 3-(4,5-dimethylthiazolyl-2)-2,5-diphenyltetrazolium bromide (MTT, Sigma-Aldrich) dissolved in phosphate-buffered saline (PBS) at the concentration of 0.2 mg/mL, and samples were incubated for 2 h at 37 °C. To dissolve the blue-violet formazan salt crystals formed, 0.1 mL of isopropyl alcohol was added to each well and incubated for 20 min. The absorbance at 570 nm was measured using a multiwell plate reader (Wallac Victor2, PerkinElmer, Milano, Italia), and viability was compared with that of untreated cells, used as controls.

[3] = tested on: U2OS (human osteosarcoma); experiment: MTT assay, cell viability; format: cell-based; settings: for IC50: Homo sapiens, U2OS, after 48 h of treatment, n.a. = non active; for sensitivity of U2OS to the compound (IC50 analysis): only U2OS among tumor cell lines
From the text: as §1, §2, §3

[4] = tested on: acetylated histones H2/H3 and H4 in U2OS cells; experiment: Histone acetylation, Western blot with anti-acetyl lysine antibody; format: cell-based, human; settings: 6 h, densitometry normalized on histone H1, vs control
From the text: To identify acetylated histones, we analyzed the nuclear cell lysates by Western blot using a 15% polyacrylamide gel electrophoresis. After electrophoresis, the proteins were transferred to a nitrocellulose membrane and then immunoblotted with an anti-acetyl lysine monoclonal antibody. […] Differences in the density of bands are thought to reflect differences in protein acetylation levels. Histone acetylation signals were quantified by densitometry and normalized on histone H1. Histones H2/H3 acetylation increased by 28% upon treatment with 6 for 6 h with no effect on H4 acetylation, whereas compound 8a induced hyperacetylation by 30% on histone H4 only.
U2OS were cultured with 5a, 6, or 8a, for 6 h, and the histone fraction was immediately extracted. Cells were harvested using 0.11% trypsin and 0.02% EDTA, washed twice with 10 mM sodium butyrate (NaBu) in PBS, and nuclei were isolated according to Amellem et al.. The nuclear pellet was suspended in 0.1 mL of ice-cold water using a Vortex mixer, and concentrated H2SO4 was added to the suspension to give a final concentration of 0.4 N. After incubation at 4 °C for 1 h, the suspension was centrifuged for 5 min at 14,000× g, and the supernatant was taken and mixed with 1 mL of acetone. After overnight incubation at −20 °C, the coagulate material was collected by microcentrifugation and air-dried, and proteins were quantified using a protein assay kit (Bio-Rad, Hercules, CA, USA). Histones were analyzed as previously described. Briefly, histones were resolved by 15% SDS-PAGE and immunoblotted with anti-acetylated lysine antibody (Cell Signaling Technology, Beverly, MA, USA); the detection of immunoreactive bands was performed with a secondary antibody conjugated with horseradish peroxidase and developed with an enhanced chemiluminescence (ECL) system, developed with the enhanced chemiluminescence system Clarity Western (Bio-Rad, Hercules, CA, USA), and quantification was done by Fluor-S Max MultiImager (Bio-Rad). Histone acetylation signals were quantified by densitometry and normalized on histone H1.

[5] = tested on: U2OS cells; experiment: Hoechst 33,342 nuclear staining, confocal microscopy; format: cell-based, human; settings: 24 h
Description: These effects induced by the above compounds on histone acetylation are not associated with events involved in apoptotic death.
Nuclear morphology was assayed using a specific dye Hoechst 33,342. U2OS treated cells were washed, fixed, and then stained with 1 µM Hoechst 33,342 (Sigma-Aldrich, St Louis, MO, USA) for 15 min. Samples were embedded in Mowiol and analyzed using a Nikon C1s confocal laser-scanning microscope, equipped with a Nikon PlanApo 40×, 1.4 numerical aperture (NA) oil immersion lens. Images were quantified by ImageJ software (IMAJ 1.x).

[6] = tested on: HT29 (human colon adenocarcinoma); experiment: MTT assay, cell viability; format: cell-based; settings: HT-29, after 48 h of treatment, n.a. = non active
From the text: as §1, §2, §3

[7] = tested on: PC3 (human prostatic carcinoma); experiment: MTT assay, cell viability; format: cell-based; settings: after 48 h of treatment, n.a. = non active
From the text: as §1, §2, §3

[8] = tested on: U2OS cells; experiment: Cell-cycle assay by flow cytometry (PI fluorescence, forward scatter); format: cell-based, human; settings: 24 h; for mean channel of FS distribution (nuclear size): U2OS nuclei, 35 μM of 6, 50 μM of 5a or 8a, control cells 730; for effect on cell-cycle progression: U2OS, 35 μM of compound 6, 50 μM of 5a, 50 μM of 8a
Description: To infer whether their effects were due to interference with cell-cycle progression, DNA profiles of cultured cells were examined by flow cytometry. […] As clear from Figure 3, the nuclei in all cell-cycle phases were affected.
For the cell-cycle assay, U2OS cells were treated for 24 h with 35 μM of compound 6, 50 μM of 5a, or 50 μM of 8a, detached with 0.11% trypsin (Sigma-Aldrich, S.Louis, MO, USA)/0.02% ethylenediaminetetraacetic acid (EDTA) (Sigma-Aldrich, S.Louis, MO, USA), washed in PBS, and centrifuged. The pellet was resuspended in 0.01% Nonidet P-40 (Sigma-Aldrich, S.Louis, MO, USA), 10 μg/mL RNase (Sigma-Aldrich, S.Louis, MO), 0.1% sodium citrate, and 50 μg/mL propidium iodide (PI) (Sigma-Aldrich, S.Louis, MO, USA), for 30 min at room temperature in the dark. PI fluorescence and forward scatter (FS) signals were analyzed using a Beckman Coulter Epics XL-MCL flow cytometer. DNA distribution in the cell cycle was analyzed by the MODFIT 5.0 software. As the signal collected by a multichannel analyzer, the mean of the FS distribution is expressed as mean channel.

[9] = tested on: U2OS cell line; parameters: method as in PMID 31646829, PMID 26298721; settings: ref [30],[31]; cited from earlier work

In the case of `CCCC(=O)[O-].[Na+]` [sodium butyrate], the IC50 [1] is listed as 5 µM.
With `COC(=O)CCCCCCCC(=O)Nc1ccncn1` [5b, Methyl 9-oxo-9-(pyrimidin-4-ylamino)nonanoate] the IC50 [2] was > 100 µM, the IC50 [3] was > 100 µM and the melting point was 92 to 94.2 °C.
With `COC(=O)CCCCCCCC(=O)n1cnc2ccccc21` [8a, Methyl 9-(1H-benzo[d]imidazol-1-yl)-9-oxononanoate] the “increase of histone H4 acetylation” value [4] was 30%, the “nuclear morphology by Hoechst 33,342 staining” value (“nuclear morphology” below) [5] was “dim staining of nuclei” and the IC50 [6] was > 100 µM. For the same compound, the IC50 [3] was 50 µM, the “sensitivity of U2OS to the compound (IC50 analysis)” value (“sensitivity of U2OS to the compound” below) [3] was “sensitive” and the IC50 [7] was > 100 µM. For the same compound, the “mean channel of FS distribution (nuclear size)” value (shortened to “mean channel of FS distribution”) [8] was 780 and the “effect on cell-cycle progression” value [8] was “slight accumulation in the synthesis (S) phase”.
With `COC(=O)CCCCCCCC(=O)Nc1ccncc1` [4c, Methyl 9-oxo-9-(pyridin-4-ylamino)nonanoate] the IC50 [3] was > 100 µM and the melting point was 83 to 85 °C.
With `COC(=O)CCCCCCCC(=O)n1nnc2ccccc21` [8b, Methyl 9-(1H-benzo[d][1,2,3]triazol-1-yl)-9-oxononanoate] the IC50 [2] was > 100 µM and the melting point was 55.5 to 57.2 °C.
In the case of `COC(=O)CCCCCCCC(=O)Nc1cncnc1` [5c, Methyl 9-oxo-9-(pyrimidin-5-ylamino)nonanoate], the IC50 [6] is reported as > 100 µM, the IC50 [2] is reported as > 100 µM and the IC50 [7] is reported as > 100 µM. For the same compound, the melting point was 78.6 to 80.2 °C.
For `COc1cccc2c1C(=O)c1c(O)c3c(c(O)c1C2=O)C[C@@](O)(C(=O)CO)C[C@@H]3O[C@H]1C[C@H](N)[C@H](O)[C@H](C)O1` [doxorubicin], the IC50 [9] is listed as 0.5 µM.
With `COC(=O)CCCCCCCC(=O)N(C(=O)CCCCCCCC(=O)OC)c1ncccn1` [compound 6, Dimethyl 9,9’-(pyrimidin-2-ylazanediyl)bis(9-oxononanoate)] the “increase of histone H4 acetylation” value [4] was “no effect”, the “increase of histones H2/H3 acetylation” value [4] was 28% and the “nuclear morphology” value [5] was “increase in nuclear size”. The IC50 [6] was > 100 µM, the IC50 [3] was 35 µM and the “sensitivity of U2OS to the compound” value [3] was “sensitive”. The “mean channel of FS distribution” value [8] was 905 and the “effect on cell-cycle progression” value [8] was “increase in the gap 0/gap 1 (G0/G1) fraction, with concomitant decrease in the G2/mitosis (M) phase”.
For `CC(/C=C/C(=O)NO)=C\[C@@H](C)C(=O)c1ccc(N(C)C)cc1` [trichostatin A], the IC50 [1] is given as 0.5 µM.
In the case of `N.N.[Cl][Pt][Cl]` [Cisplatin], the IC50 [9] is listed as 1.67 µM.
In the case of `COC(=O)CCCCCCCC(=O)Nc1ncccn1` [5a, Methyl 9-oxo-9-(pyrimidin-2-ylamino)nonanoate], the “increase of histone H4 acetylation” value [4] is reported as 22%, the “increase of histones H2/H3 acetylation” value [4] is reported as 89% and the “nuclear morphology” value [5] is reported as “dim staining of nuclei”. The IC50 [3] was 50 µM, the “sensitivity of U2OS to the compound” value [3] was “sensitive” and the “mean channel of FS distribution” value [8] was 735. For the same compound, the “effect on cell-cycle progression” value [8] was “slight accumulation in the synthesis (S) phase”.
For `O=c1[nH]cc(F)c(=O)[nH]1` [5-fluorouracile], the IC50 [9] is listed as 0.3 µM.
For `COC(=O)CCCCCCCC(=O)Nc1cccnc1` [4b, Methyl 9-oxo-9-(pyridin-3-ylamino)nonanoate], the IC50 [6] was > 100 µM, the IC50 [3] was > 100 µM and the melting point was 75.5 to 77.7 °C.
With `COC(=O)CCCCCCCC(=O)Nc1ccccn1` [4a, Methyl 9-oxo-9-(pyridin-2-ylamino)nonanoate] the IC50 [6] was > 100 µM, the IC50 [3] was > 100 µM and the melting point was 59 to 60 °C.
